Holding throughout (format): biochemical
One experiment has as its target T1, Human Calpain 1/NS1 (Homo sapiens, UniProt P07384).
T1 sequence (P07384 1-714): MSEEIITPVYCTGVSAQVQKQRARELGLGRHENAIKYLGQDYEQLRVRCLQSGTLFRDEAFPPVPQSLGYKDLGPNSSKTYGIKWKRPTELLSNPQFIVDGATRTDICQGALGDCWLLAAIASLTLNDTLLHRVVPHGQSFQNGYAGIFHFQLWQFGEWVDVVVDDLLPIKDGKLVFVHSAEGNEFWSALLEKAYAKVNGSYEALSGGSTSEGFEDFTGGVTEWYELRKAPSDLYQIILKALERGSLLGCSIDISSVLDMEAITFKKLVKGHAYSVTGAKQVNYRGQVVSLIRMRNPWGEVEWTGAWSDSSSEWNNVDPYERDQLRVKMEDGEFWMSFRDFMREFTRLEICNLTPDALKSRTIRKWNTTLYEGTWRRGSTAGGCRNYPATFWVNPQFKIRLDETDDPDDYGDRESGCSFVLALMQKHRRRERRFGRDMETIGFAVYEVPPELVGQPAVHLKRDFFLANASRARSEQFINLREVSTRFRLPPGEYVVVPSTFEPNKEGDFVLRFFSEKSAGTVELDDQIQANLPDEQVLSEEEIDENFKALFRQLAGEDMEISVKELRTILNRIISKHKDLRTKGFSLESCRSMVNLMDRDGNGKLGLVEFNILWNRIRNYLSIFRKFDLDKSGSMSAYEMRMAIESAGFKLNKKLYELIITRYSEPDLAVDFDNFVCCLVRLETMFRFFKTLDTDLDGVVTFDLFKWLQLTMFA
T1 sequence (P04632 1-268 partner): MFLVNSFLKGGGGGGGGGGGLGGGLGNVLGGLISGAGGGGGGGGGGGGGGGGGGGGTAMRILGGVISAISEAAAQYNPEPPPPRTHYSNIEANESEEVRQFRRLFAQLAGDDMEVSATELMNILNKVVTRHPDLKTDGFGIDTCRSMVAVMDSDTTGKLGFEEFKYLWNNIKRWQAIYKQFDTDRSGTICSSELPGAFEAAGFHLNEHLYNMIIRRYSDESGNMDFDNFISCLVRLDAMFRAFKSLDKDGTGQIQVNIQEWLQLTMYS
The experiment is described as follows: Calpain inhibition continuous fluorescence (FRET) assay, Human Calpain 1/NS1. Conditions: read-out: Human Calpain 1/NS1 IC50. Summed up: (§1)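 Fluorescence increase from the cleaved 5-FAM/QXL 520 substrate, read at 490/520 nm, gave activity. Calcium was supplied with the substrate to activate the enzyme in situ after a 25C enzyme-inhibitor preincubation, and IC50s were fit from initial slopes.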

For the next experiment, the target named is T2, Human Calpain 9/NS1 (Homo sapiens, UniProt O14815).
T2 sequence (O14815 1-690): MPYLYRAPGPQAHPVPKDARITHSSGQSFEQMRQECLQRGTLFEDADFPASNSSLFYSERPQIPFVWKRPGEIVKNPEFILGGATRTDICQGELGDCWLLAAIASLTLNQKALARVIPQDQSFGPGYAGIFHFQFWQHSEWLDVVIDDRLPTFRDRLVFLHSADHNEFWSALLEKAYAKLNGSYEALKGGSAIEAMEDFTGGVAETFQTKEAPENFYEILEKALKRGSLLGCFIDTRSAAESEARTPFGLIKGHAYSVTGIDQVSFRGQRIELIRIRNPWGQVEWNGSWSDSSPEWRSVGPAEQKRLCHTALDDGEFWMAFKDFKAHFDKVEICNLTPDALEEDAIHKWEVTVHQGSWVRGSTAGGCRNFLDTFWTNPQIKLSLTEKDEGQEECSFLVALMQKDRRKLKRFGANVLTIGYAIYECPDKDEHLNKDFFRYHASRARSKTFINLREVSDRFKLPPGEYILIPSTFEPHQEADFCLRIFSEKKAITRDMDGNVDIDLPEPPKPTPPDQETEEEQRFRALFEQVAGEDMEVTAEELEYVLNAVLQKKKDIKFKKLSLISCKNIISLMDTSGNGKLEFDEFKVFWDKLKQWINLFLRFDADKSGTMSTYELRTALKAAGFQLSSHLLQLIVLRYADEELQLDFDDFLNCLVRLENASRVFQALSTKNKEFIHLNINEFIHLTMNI
T2 sequence (P04632 1-268 partner): T1 sequence (P04632 1-268 partner)
Put plainly: Calpain inhibition continuous fluorescence (FRET) assay, Human Calpain 9/NS1. Conditions: read-out: Human Calpain 9/NS1 IC50. A digest of the protocol:
as §1

For another experiment, the target named is T3, Human Calpain 2/NS1 (Homo sapiens, UniProt P17655).
T3 sequence (P17655 1-700): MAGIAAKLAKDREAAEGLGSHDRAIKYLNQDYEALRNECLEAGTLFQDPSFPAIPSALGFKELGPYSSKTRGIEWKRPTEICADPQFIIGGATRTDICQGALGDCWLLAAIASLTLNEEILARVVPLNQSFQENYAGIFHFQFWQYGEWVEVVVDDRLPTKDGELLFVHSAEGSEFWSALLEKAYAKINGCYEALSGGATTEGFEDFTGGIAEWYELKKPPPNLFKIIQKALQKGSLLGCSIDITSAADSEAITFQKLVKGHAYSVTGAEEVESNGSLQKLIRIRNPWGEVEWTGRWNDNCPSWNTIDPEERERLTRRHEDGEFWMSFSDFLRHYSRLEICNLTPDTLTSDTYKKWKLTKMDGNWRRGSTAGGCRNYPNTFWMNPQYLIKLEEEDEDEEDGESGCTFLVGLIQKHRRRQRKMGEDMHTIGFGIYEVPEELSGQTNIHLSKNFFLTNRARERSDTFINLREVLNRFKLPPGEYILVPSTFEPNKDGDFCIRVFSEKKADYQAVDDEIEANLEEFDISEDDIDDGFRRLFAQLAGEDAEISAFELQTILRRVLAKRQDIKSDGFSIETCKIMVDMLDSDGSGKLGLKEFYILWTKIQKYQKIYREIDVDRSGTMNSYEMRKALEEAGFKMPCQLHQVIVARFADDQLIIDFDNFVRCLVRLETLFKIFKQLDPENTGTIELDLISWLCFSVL
T3 sequence (P04632 1-268 partner): T1 sequence (P04632 1-268 partner)
The experiment is described as follows: Calpain inhibition continuous fluorescence (FRET) assay, Human Calpain 2/NS1. Conditions: read-out: Human Calpain 2/NS1 IC50. A digest of the protocol: as §1

Molecules are shown by their SMILES.

`Cn1cc(C(=O)NC(Cc2ccccc2)C(=O)C(N)=O)c(-c2ccc(C(F)(F)F)nc2)n1` (stereo not drawn) [Compound 315, N-(4-amino-3,4-dioxo-1-phenylbutan-2-yl)-1-methyl-3-(6-(trifluoromethyl)pyridin-3-yl)-1H-pyrazole-4-carboxamide]: the IC50 on Human Calpain 1/NS1 was 3 to 10 µM; on Human Calpain 9/NS1 it was under 3 µM; at Human Calpain 2/NS1 it was 3 to 10 µM.
With `Cc1cccc(-c2nn(C)cc2C(=O)NC(Cc2ccccc2)C(=O)C(N)=O)n1` (stereo not drawn) [Compound 316, N-(4-amino-3,4-dioxo-1-phenylbutan-2-yl)-1-methyl-3-(6-methylpyridin-2-yl)-1H-pyrazole-4-carboxamide], the IC50 at Human Calpain 1/NS1 was over 10 µM; on Human Calpain 9/NS1, 3 to 10 µM; at Human Calpain 2/NS1, over 10 µM.
Regarding `Cc1ncc(C(=O)NC(Cc2ccccc2)C(=O)C(N)=O)n1-c1ccccc1` (stereo not drawn) [Compound 318, N-(4-amino-3,4-dioxo-1-phenylbutan-2-yl)-2-methyl-1-phenyl-1H-imidazole-5-carboxamide], the IC50 at Human Calpain 1/NS1 was under 3 µM; on Human Calpain 9/NS1 it was under 3 µM; on Human Calpain 2/NS1, 3 to 10 µM.
With `Cc1cn(-c2ccccc2)c(C(=O)N[C@@H](Cc2ccccc2)C(=O)C(N)=O)n1` [Compound 319, (S)—N-(4-amino-3,4-dioxo-1-phenylbutan-2-yl)-4-methyl-1-phenyl-1H-imidazole-2-carboxamide], the IC50 on Human Calpain 1/NS1, at Human Calpain 9/NS1 and at Human Calpain 2/NS1 was under 3 µM each time.
Regarding `NC(=O)C(=O)C(Cc1ccccc1)NC(=O)c1conc1-c1ncccn1` (stereo not drawn) [Compound 324, N-(4-amino-3,4-dioxo-1-phenylbutan-2-yl)-3-(pyrimidin-2-yl)isoxazole-4-carboxamide], the IC50 was under 3 µM on Human Calpain 1/NS1, 3 to 10 µM at Human Calpain 9/NS1 and under 3 µM at Human Calpain 2/NS1.
Regarding `Cc1nc(-c2ccccc2)c(C(=O)NC(Cc2cc(Cl)cc(Cl)c2)C(=O)C(N)=O)o1` (stereo not drawn) [Compound 390, N-(4-amino-1-(3,5-dichlorophenyl)-3,4-dioxobutan-2-yl)-2-methyl-4-phenyloxazole-5-carboxamide], the IC50 at Human Calpain 1/NS1, at Human Calpain 9/NS1 and on Human Calpain 2/NS1 was under 3 µM each time.
Turning to `Cc1nc(-c2ccccc2)c(C(=O)N[C@@H](CC(C)(C)C)C(=O)C(N)=O)o1` [Compound 391, (S)—N-(1-amino-5,5-dimethyl-1,2-dioxohexan-3-yl)-2-methyl-4-phenyloxazole-5-carboxamide], the IC50 at Human Calpain 1/NS1, on Human Calpain 9/NS1 and on Human Calpain 2/NS1 was under 3 µM each time.
`Cn1cc(C(=O)NC(Cc2ccccc2)C(=O)C(N)=O)c(C(=O)c2ccccc2)n1` (stereo not drawn) [Compound 395, N-(4-amino-3,4-dioxo-1-phenylbutan-2-yl)-3-benzoyl-1-methyl-1H-pyrazole-4-carboxamide]: the IC50 at Human Calpain 1/NS1 was over 10 µM; at Human Calpain 9/NS1, 3 to 10 µM; on Human Calpain 2/NS1, 3 to 10 µM.
Consider `Cc1cc(C(=O)NC(Cc2ccccc2)C(=O)C(N)=O)n(-c2ccncn2)n1` (stereo not drawn) [Compound 409, N-(4-amino-3,4-dioxo-1-phenylbutan-2-yl)-3-methyl-1-(pyrimidin-4-yl)-1H-pyrazole-5-carboxamide], for which the IC50 on Human Calpain 1/NS1, on Human Calpain 9/NS1 and at Human Calpain 2/NS1 was under 3 µM each time.
For the compound `NC(=O)C(=O)C(Cc1ccccc1)NC(=O)c1c(C(F)(F)F)cnn1-c1ncccn1` (stereo not drawn) [Compound 410, N-(4-amino-3,4-dioxo-1-phenylbutan-2-yl)-1-(pyrimidin-2-yl)-4-(trifluoromethyl)-1H-pyrazole-5-carboxamide], the IC50 on Human Calpain 1/NS1, on Human Calpain 9/NS1 and at Human Calpain 2/NS1 was 3 to 10 µM throughout.
For `Cc1cc(C(=O)NC(Cc2ccccc2)C(=O)C(N)=O)c(-c2nc3ccccc3[nH]2)s1` (stereo not drawn) [Compound 429, N-(4-amino-3,4-dioxo-1-phenylbutan-2-yl)-2-(1H-benzo[d]imidazol-2-yl)-5-methylthiophene-3-carboxamide], the IC50 on Human Calpain 1/NS1, at Human Calpain 9/NS1 and on Human Calpain 2/NS1 was under 3 µM throughout.
